Consider three compounds from US20250108038A1 (priority 2023, published 2025).

Series [1] concerns the target T1, OCT2 (Homo sapiens, UniProt O15244).
T1 sequence (O15244 1-555): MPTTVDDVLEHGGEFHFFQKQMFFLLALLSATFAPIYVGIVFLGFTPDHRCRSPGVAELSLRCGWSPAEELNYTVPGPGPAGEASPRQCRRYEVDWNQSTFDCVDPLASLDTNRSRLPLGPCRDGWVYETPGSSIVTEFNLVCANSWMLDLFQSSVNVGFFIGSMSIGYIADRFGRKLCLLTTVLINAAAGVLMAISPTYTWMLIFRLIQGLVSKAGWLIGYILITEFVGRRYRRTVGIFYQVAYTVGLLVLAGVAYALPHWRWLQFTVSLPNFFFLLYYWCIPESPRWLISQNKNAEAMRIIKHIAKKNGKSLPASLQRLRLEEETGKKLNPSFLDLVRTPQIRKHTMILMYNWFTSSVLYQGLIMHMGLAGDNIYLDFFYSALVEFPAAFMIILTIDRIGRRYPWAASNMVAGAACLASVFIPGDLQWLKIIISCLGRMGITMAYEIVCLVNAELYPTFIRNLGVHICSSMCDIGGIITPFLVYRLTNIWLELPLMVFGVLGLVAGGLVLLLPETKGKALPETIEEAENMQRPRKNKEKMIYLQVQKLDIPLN
Nature of the series: Uptake transporter inhibition assay, OCT2 (metformin). The method, then: Uptake experiments were performed using HEK293 cells stably expressing the respective uptake transporters. The assays were conducted according to the actual SOLVO uptake transporter assay protocols (PR-ASY-UPT-General Protocol for Uptake Transporter Inhibition Assays).
Cells were cultured at 37° C. in a humidified atmosphere containing 5% CO2 and were plated onto standard 96-well tissue culture plates.
Before the experiment, the medium was removed, and the cells were washed twice with 100 μL of pre-warmed (37° C.) assay buffer listed in Table 15. The cells were pre-incubated at 37° C. for 30 minutes in assay buffer containing the test article at appropriate concentrations (Table 16), appropriate solvents for solvent controls and the reference inhibitor for reference inhibitor wells. After the pre-incubation step solutions were removed. Uptake experiments were performed at 37° C. in 50 μL of assay buffer containing the probe substrate and the test article or solvent and controls.
After the experiment, cells were washed twice with 100 μL of appropriate cold buffer and lysed with 150 μL scintillation cocktail. Radiolabeled probe substrate transport was determined by liquid scintillation counting.
Uptake of the probe substrate in control cells provided background activity values for all data points.

Series [2] relates to human red blood cells. The series is described as follows: Hemolysis study in human blood. Type of series: cell-based. As to conditions: 60 min, 37° C.; for % RBC lysis (hemolytic potential): test articles 25, 50, 100 μM, amphotericin B 1, 10, 30, 100 μM. On the procedure:
FIG. 4A. […] Compound I-19 in human blood. Red blood cells were isolated from whole blood and resuspended in PBS. […] (final concentrations 25, 50, and 100 μM) and the mixtures were incubated at 37° C. for 60 min. After the incubation, the samples were centrifuged and the absorbance of 100 μL of supernatant was read at 410 nm. % RBC lysis is expressed relative to 100% lysis control. Values represent mean+SEM of n=3 separate experiments.
FIG. 4B. Hemolytic Potential of Compound I-4 in human blood. Red blood cells were isolated from whole blood and resuspended in PBS. 190 μL of diluted RBC suspension and 10 μL of Compound I-4 solutions were mixed at 0 min. (final concentrations 25, 50, and 100 μM) and the mixtures were incubated at 37° C. for 60 min. After the incubation, the samples were centrifuged and the absorbance of 100 μL of supernatant was read at 410 nm. % RBC lysis is expressed relative to 100% lysis control. Values represent mean+SEM of n=3 separate experiments.
FIG. 4C. Hemolytic Potential of Amphotericin B in human blood (positive assay control). Red blood cells were isolated from whole blood and resuspended in PBS. 190 μL of diluted RBC suspension and 10 μl of amphotericin B solutions were mixed at 0 min. (final concentrations 1, 10, 30, and 100 μM) and the mixtures were incubated at 37° C. for 60 min. After the incubation, the samples were centrifuged and the absorbance of 100 μL of supernatant was read at 410 nm. % RBC lysis is expressed relative to 100% lysis control. Values represent mean+SEM of n=3 separate experiments.
To a clear 96-well V-bottom polystyrene plate, the test articles (10 μL) and the diluted RBCs (190 μL) from human or rat blood were mixed for final concentrations of 25, 50, and 100 μM. The reaction mixture was incubated at 37° C. for 60 min. Following the exposure period, the plates were centrifuged. After centrifugation, 70 μL of supernatant (without disturbing the pellet) was transferred to a clean and clear polystyrene flat bottomed 96-well plate and the absorbance of the sample at a single wavelength was measured using a BioTech Synergy H1 Plate Reader at a wavelength of 410 nm. The positive control for this assay was amphotericin B test at concentrations of 1, 10, 30, and 100 μM.

[3] abbreviates: 0.04 μM nominal, metformin, IC50 determination, Table 124.
The mark [4] stands for this setting: 0.12 μM nominal, metformin, IC50 determination, Table 124.
[5] abbreviates: 1.11 μM nominal, metformin, IC50 determination, Table 124.
Setting [6] is: 3.00 μM nominal, metformin, Table 123.
[7] abbreviates: 10.00 μM nominal, metformin, IC50 determination, Table 124.
[8] abbreviates: 30.00 μM nominal, metformin, IC50 determination, Table 124.
Setting [9] is: 30.00 μM nominal, metformin, Table 123.
[10] abbreviates: 0.14 μM nominal, 0.09 μM NSB corrected, follow-up assay.
The mark [11] stands for this setting: 1.24 μM nominal, 0.86 μM NSB corrected, follow-up assay.
The mark [12] stands for this setting: 10.00 μM nominal, 6.60 μM NSB corrected.
[13] abbreviates: 11.11 μM nominal, 7.89 μM NSB corrected, follow-up assay.
Where [14] appears, read: 33.33 μM nominal, 24.33 μM NSB corrected, follow-up assay.
The mark [15] stands for this setting: 100.00 μM nominal, 77.00 μM NSB corrected.
Where [16] appears, read: 100.00 μM nominal, 100.00 μM NSB corrected, follow-up assay.
[17] abbreviates: […] nominal, 1.89 μM NSB corrected, follow-up assay.

Read-outs that look alike come from different tables or passages of the source.

`OC1(c2ccc(Cl)cc2)c2ccccc2C2=NCCN21` (stereo not shown) [Compound A, 5-(4-chlorophenyl)-2,3-dihydroimidazo[1,2-b]isoindol-5-ol, reference compound]: the IC50 in series [1] came out at 3.49 µM. For the same compound, the “Relative transporter specific accumulation” value in series [1] (setting [3]) is 109.28 ± 6.45 % of control; in series [1] (setting [4]), 106.33 ± 3.85 % of control; in series [1] (setting [5]) it was 84.39 ± 4.06 % of control; in series [1] (setting [6]) it was 51.42 ± 3.71 % of control; in series [1] (setting [7]) it was 25.88 ± 3.39 % of control; in series [1] (setting [8]) it was 9.42 ± 0.99 % of control. Moreover, the “Relative transporter specific accumulation” value in series [1] (setting [9]) was 13.54 ± 1.38 % of control. Moreover, the Transporter specific accumulation in series [1] (setting [3]) is listed as 259.00 ± 13.36 cpm; in series [1] (setting [4]) it was 252.00 ± 5.57 cpm; in series [1] (setting [5]), 200.00 ± 7.72 cpm; in series [1] (setting [6]), 150.67 ± 6.96 cpm; in series [1] (setting [7]) it was 61.33 ± 7.84 cpm; in series [1] (setting [8]), 22.33 ± 2.26 cpm. The Transporter specific accumulation in series [1] (setting [9]) is 39.67 ± 3.38 cpm. The inhibition at 10 µM in series [1] (human, Maximum % inhibition, OCT2, HEK293 cells, metformin (10 μM), NIO: no inhibition observed) was 91%; in series [1] (human, Relative Inhibition, 10.00 μM nominal, metformin, IC50 determination, Table 124), 74%. Moreover, the inhibition at 0.04 μM in series [1] (human, Relative Inhibition, 0.04 μM nominal, metformin, IC50 determination, Table 124) is -9%. The inhibition at 0.12 μM in series [1] (human, Relative Inhibition, 0.12 μM nominal, metformin, IC50 determination, Table 124) was -6%. Besides, the inhibition at 1.11 μM in series [1] (human, Relative Inhibition, 1.11 μM nominal, metformin, IC50 determination, Table 124) was found to be 16%. Besides, the inhibition at 30 μM in series [1] (human, Relative Inhibition, 30.00 μM nominal, metformin, IC50 determination, Table 124) is 91%; in series [1] (human, Relative inhibition, 30.00 μM nominal, metformin, Table 123) it was 86%. In series [1] (human, Relative inhibition, 3.00 μM nominal, metformin, Table 123), the inhibition at 3 μM was found to be 49%.

Consider `COCCOC1(c2ccc(Cl)cc2)c2ccccc2C2=NCCN21` (stereo not shown) [Compound I-4], for which, in series [2], the “EC50 (% RBC lysis)” value was “outside the concentration range tested” and the “% RBC lysis (hemolytic potential)” value is recorded as “no detectable hemolysis”.

In the case of `Clc1ccc(C2(OCC3OCCO3)c3ccccc3C3=NCCN32)cc1` (stereo not shown) [Compound I-19], the Relative inhibition in series [1] (setting [10]) is on record as 1%; in series [1] (setting [11]), 19%; in series [1] (setting [12]), 69%; in series [1] (setting [13]), 60%; in series [1] (setting [14]), 87%; in series [1] (setting [15]), 98%. In addition, the values for the Relative inhibition in series [1] (setting [16]) and in series [1] (setting [17]) were 97% and 29%, respectively. Besides, the “Relative transporter specific accumulation” value is given as 98.93 ± 6.26 % of control in series [1] (setting [10]); 81.44 ± 5.58 % of control in series [1] (setting [11]); 30.61 ± 3.54 % of control in series [1] (setting [12]); 39.65 ± 3.63 % of control in series [1] (setting [13]); 12.63 ± 3.35 % of control in series [1] (setting [14]); 1.78 ± 0.65 % of control in series [1] (setting [15]). The “Relative transporter specific accumulation” value in series [1] (setting [16]) was 3.16 ± 1.38 % of control; in series [1] (setting [17]) it was 70.94 ± 7.30 % of control. Besides, the Transporter specific accumulation in series [1] (setting [10]) was determined as 339.33 ± 6.18 cpm; in series [1] (setting [11]), 279.33 ± 8.96 cpm; in series [1] (setting [12]), 126.00 ± 14.46 cpm; in series [1] (setting [13]) it was 136.00 ± 9.32 cpm; in series [1] (setting [14]) it was 43.33 ± 11.20 cpm; in series [1] (setting [15]), 7.33 ± 2.67 cpm. The Transporter specific accumulation in series [1] (setting [16]) amounted to 10.83 ± 4.69 cpm; in series [1] (setting [17]), 243.33 ± 20.22 cpm. Further, the “maximum inhibition of OCT2-mediated metformin accumulation” value is reported as 98% in series [1] (2-concentration assay, 100 μM (Compound A 30 μM)) and 97% in series [1] (follow-up assay). In addition, the Maximum % inhibition in series [1] (OCT2, HEK293 cells, metformin (10 μM), NIO: no inhibition observed) was 97%. In addition, the IC50 in series [1] (follow-up assay, NSB-corrected concentrations for Compound I-19) turned out to be 8.95 µM. Further, in series [2], the “EC50 (% RBC lysis)” value was “outside the concentration range tested”. The “% RBC lysis (hemolytic potential)” value in series [2] was “no detectable hemolysis”.
